From US12297426B2, “DNA damage response signature guided rational design of CRISPR-based systems and therapies” (THE BROAD INSTITUTE, INC., priority 2019, dated 2025)

Test system: MCF7 cells
Assay: Drug response assay (CellTiter-Glo)
Assay type: cell-based, human
Details: Cas9-expressing vs parental MCF7 cells; 0 μM-100 μM, 72 h
Experimental: To further test the functional implications of Cas9-induced p53 activation, compared the response of parental and Cas9-expressing MCF7 cells to the MDM2-inhibitor nutlin-3 was compared. […] Without being bound by theory, these findings conclude that Cas9-induced p53 activation can affect both genetic and chemical perturbation assays.
MCF7 cells were seeded at a density of 9,000 cells per well in a 96-well plate. The next day, media was washed and fresh media containing nutlin-3 (Sigma-Aldrich) was added to the corresponding wells in a concentration range of 0 μM-100 μM. After 72 h of incubation, levels of ATP were measured as a surrogate marker for cell viability using the CellTiter-Glo assay (Promega). Luminescence measurements were acquired in a SpectraMax reader (ATC) using an integration time of 500 ms.

COc1ccc(C2=N[C@@H](c3ccc(Cl)cc3)[C@@H](c3ccc(Cl)cc3)N2C(=O)N2CCNC(=O)C2)c(OC(C)C)c1 [nutlin-3]
drug sensitivity: modest, but significant, increase
